Values after ≈ are worked out from the molar mass of the structure shown.

The subject of one assay is Epidermoid carcinoma cell line. The assay is described as follows: Compound was evaluated for cytotoxicity against vincristine- sensitive (KB/S) human oral epidermoid carcinoma cell line at 7 ug/mL. The format is functional.
Conditions: not given
`COC(=O)C1=CC23CCCN4CC[C@@]5(c6cccc(OC)c6N(C(=O)OC)C15CC2)[C@@H]43` (stereo partly specified): the Cell growth is below 50%.

The next assay has as its system Epidermoid carcinoma cell line. The assay is described as follows: Compound was evaluated for cytotoxicity against vincristine- resistant (KB/VJ300) human oral epidermoid carcinoma cell line. The format is functional, cell-based.
Conditions: not given
For orientation: IC50 means the concentration needed to halve the response being measured. As for `COC(=O)[C@@H]1CC23CCCN4CC[C@@]5(c6ccccc6NC15CC2)[C@@H]43` (stereo partly specified) [KOPSININE], half-maximal inhibition (IC50) was put at 25 µg/mL (≈ 73.9 µM). Same read-out and setting: the value for `COC(=O)N1c2c(OC)cccc2[C@@]23CCN4CCCC5(CCC12[C@](O)(C(=O)OC)C5)[C@H]43` (stereo partly specified) [KOPSILONGINE] was 15.4 µg/mL (≈ 34.8 µM); that for `COC(=O)N1c2c(OC)cccc2[C@@]23CCN4CC=C[C@]5(CC[C@]12[C@](O)(C(=O)OC)[C@@H]5O)[C@H]43` [KOPSINGINE] was above 25 µg/mL. Compound `COC(=O)[C@@H]1CC23CCCN4CC[C@@]5(c6cccc(OC)c6N(C(=O)OC)C15CC2)[C@@H]43` (stereo partly specified) returned an IC50 of 21 µg/mL (≈ 49.2 µM).

For the next assay, the system named is Epidermoid carcinoma cell line. Briefly: Compound was evaluated for cytotoxicity against vincristine- resistant (KB/VJ300) human oral epidermoid carcinoma cell line; P = poor activity or moderate activity. It counts as functional, cell-based. The settings on record: Homo sapiens, Epidermoid carcinoma cell line; read-out: IC50.
As for `COC(=O)N1c2c(ccc(O)c2OC)[C@@]23CCN4CCCC5(CCC12[C@](O)(C(=O)OC)C5)[C@H]43` (stereo partly specified), the IC50 is above 25 µg/mL.

Staying with this assay, now noted: epidermoid carcinoma cell line.
For `COC(=O)N1c2c(OC)cccc2[C@@]23CCN4CCC[C@]5(CC[C@]12[C@](O)(C(=O)OC)[C@@H]5O)[C@H]43` [DIHYDROKOPSINGINE], the IC50 entry was “Poor or moderate activity”.

In the next assay the test system is Epidermoid carcinoma cell line. Briefly: Compound was evaluated for cytotoxicity against vincristine- resistant (KB/VJ300) human oral epidermoid carcinoma cell line; poor activity or moderate activity. It counts as functional, cell-based.
Conditions: not given
As for `COC(=O)N1c2c(ccc3c2OCO3)[C@@]23CC(=O)N(CCCC4=CC[C@]12[C@](O)(C(=O)OC)C4)C3=O` [PAUCIFLORINE A], the IC50 entry is given as “poor activity or moderate activity”.

With `COC(=O)N1c2c(ccc3c2OCO3)[C@]23[C@H]4OC(=O)[C@@]5(O)C[C@@]6(CCCN(C4=O)[C@@]62O)CC[C@]135` [paucidactine A], the IC50 result was “poor activity or moderate activity”. Same read-out and setting: the value for `CCO[C@H]1C[C@@H]2O[C@@H]3[C@]14CC[C@@]1(N(C(=O)OC)c5c(OC)cccc5[C@@]15CCN2[C@@H]45)[C@]3(O)C(=O)OC` [KOPSIDINE B] was “poor activity or moderate activity”; that for `COC(=O)N1c2ccccc2[C@@]23[C@@H]4CN5CCC[C@]6(CC[C@]12[C@@H](O)[C@@H]6C4=O)[C@H]53` [FRUTICOSAMINE] was “poor activity or moderate activity”. On the same count and under the same terms, for `COC(=O)N1c2c(OC)cccc2[C@@]23[C@H]4C(=O)[C@@]5(O)[C@H]6O[C@H]4N4CC[C@H](O)[C@]6(CC[C@]125)[C@H]43` the value was “poor activity or moderate activity”; for `COC(=O)N1c2c(ccc3c2OCO3)[C@]23CC(=O)C[C@@]4(CCCN(C=O)[C@@H]42)CCC13C(=O)OC` (stereo partly specified) [DANUPHYLLINE], “poor activity or moderate activity”; for `COC(=O)N1c2c(OC)cccc2[C@@]23CCN4CC[C@H](O)[C@]5(CC[C@]12[C@](O)(C(=O)OC)[C@@H]5O)[C@H]43` [KOPSINGANOL], “poor activity or moderate activity”. As to `COC(=O)N1c2c(OC)cccc2[C@@]23CCN4C[C@H]5O[C@H]5[C@]5(CC[C@]12[C@](O)(C(=O)OC)[C@@H]5O)[C@H]43`, the IC50 entry is reported as “poor activity or moderate activity”.

Another assay has as its system Epidermoid carcinoma cell line. The assay is described as follows: Compound was evaluated for cytotoxicity against vincristine-resistant (KB/VJ300) human oral epidermoid carcinoma cell line. It counts as functional, cell-based.
Conditions: not given
The compound `COC(=O)N1c2c(ccc(OC)c2OC)[C@@]23CCN4CCCC5(CCC12[C@](O)(C(=O)OC)C5)[C@H]43` (stereo partly specified) showed an IC50 of 1.6 µg/mL (≈ 3.39 µM). `COC(=O)[C@@H]1CC23CCCN4CC[C@@]5(c6ccccc6N(C(=O)OC)C15CC2)[C@@H]43` (stereo partly specified) [PLEIOCARPINE] yielded an IC50 of 3.1 µg/mL (≈ 7.82 µM).

In the case of `COC(=O)C1=CC23CCCN4CC[C@@]5(c6ccc7c(c6N(C(=O)OC)C15CC2)OCO7)[C@@H]43` (stereo partly specified), the IC50 was determined as 4.4 µg/mL (≈ 10 µM). Same read-out and setting: the value for `COC(=O)N1c2ccccc2[C@@]23CCN4CCCC5(CCC12[C@](O)(C(=O)OC)C5)[C@H]43` (stereo partly specified) [KOPSIFLORINE] was 2.3 µg/mL (≈ 5.58 µM); that for `COC(=O)N1c2c(ccc3c2OCO3)[C@@]23CCN4CCCC5(CCC12[C@](O)(C(=O)OC)C5)[C@H]43` (stereo partly specified) [KOPSAMINE] was 5.6 µg/mL (≈ 12.3 µM); that for `COC(=O)N1c2c(ccc3c2OCO3)[C@@]23CCN4CCCC5(CCC12[C@](O)(C(=O)OC)C5)[C@]43C#N` (stereo partly specified) [LAHADININE A] was 2.5 µg/mL (≈ 5.19 µM).

The record behind these values is ChEMBL document CHEMBL1130607, “Reversal of multidrug resistance (MDR) by aspidofractinine-type indole alkaloids” (Bioorg Med Chem Lett, 1998).
